For assay [1], the system named is Ca2+ channel mobilization (TRH induced). As to the kind of experiment: Calcium channel (mobilization) inhibition assay, TRH induced. The class given is cell-based. The settings on record: for IC50: TRH induced calcium mobilization. The source says:
(§1) Calcium Channel (Mobilization) Inhibition Assay
(§2) Polymorphonuclear leukocytes (PMNa), gastric glands, GH3 cells, A431 cells, spleen cells, human keratinocytes corneal cells, etc. were loaded with the Ca^2+ sensitive fluorescent dye, Fura-2. The appropriate cell type was chosen and the potency and efficacy of the anti-inflammatory furanones on calcium mobilization, calcium channel inhibition quantitated. The methods used for A431 cells listed below are representative of those used for other cells.
(§3) A431 cells were detached using a 5-10 min trypsin-EDTA treatment whereas GH3 cells were treated 2 to 5 min with a 1% pancreatin solution. Cells were immediately washed twice in a 20 mM HEPES buffer (pH 7.4) containing 120 mM NaCl, 6 mM KCl, 1 mM MgSO4, 1 mg/ml glucose and 1 mg/ml pyruvate and 1.4 mM calcium (medium A). Approximately 5×10^6 cells were suspended in medium A and incubated with 4 μM fura-2-AM for 15 min at 37° C.
Fluorescence was continuously recorded with a Perkin-Elmer LS-5 spectrofluorometer. The excitation wavelength was set at 340 nm and emission wavelength set at 500 nm. The cell suspension was continually stirred, maintained at 37° C. and equilibrated for approximately 5 min before addition of various agents. [Ca^2+ ]i was calculated using the following formula: [formula]
(§4) All fluorescence values were measured relative to a EGTA-quenched signal determined as follows: F was the relative fluorescence measurement of the sample. Fmax was determined by lysing the cells with digitonin (100 μg/ml) in DMSO. After Fmax was determined the pH was adjusted to 8, with NaOH and Ca^2+ chelated with 3 mM EGTA to totally quench the fura-2 signal and obtain Fmin.
(§5) When quin-2 was used, cells were Incubated with 10 μM quin-2 at 37° C. for 1 hr, washed and then used.
A general note: A change in cytosolic calcium serves as a functional read-out for many receptors and channels.

Assay [2] addresses bee venom phospholipase A2 (Apis mellifera, UniProt P00630). The experiment in a line: biochemical. To be noted: read-out: IC50 PLA2.
For assay [3], the target named is phosphoinositide-specific phospholipase C. As to the kind of experiment: Inhibition of phosphoinositide-specific phospholipase C assay (PLC). The class given is biochemical. The source says: Inhibition of Phosphoinositide-specific Phospholipase C
The effect of compounds of this invention on phosphoinositide-specific phospholipase-C may be determined by procedures described by Bennett et al, Molecular Pharmacology 32:587-593 (1987).

The test system of assay [4] is Ca2+ channel mobilization (KCl induced). The experiment in a line: Calcium channel (mobilization) inhibition assay, KCl induced. Format: cell-based.
Description: as §1, §2, §3
After washing the fura-2 loaded cells, the uptake of dye was checked using fluorescence micioscopy and found to be evenly distributed in the cytosol of all cells. Fluorescence was continuously recorded with a Perkin-Elmer LS-5 spectrofluorometer. The excitation wavelength was set at 340 nm and emission wavelength set at 500 nm. The cell suspension was continually stirred, maintained at 37° C. and equilibrated for approximately 5 min before addition of various agents. [Ca^2+ ]i was calculated using the following formula: [formula]
as §4, §5

Sequence of bee venom phospholipase A2 (P00630 34-167 limits assumed): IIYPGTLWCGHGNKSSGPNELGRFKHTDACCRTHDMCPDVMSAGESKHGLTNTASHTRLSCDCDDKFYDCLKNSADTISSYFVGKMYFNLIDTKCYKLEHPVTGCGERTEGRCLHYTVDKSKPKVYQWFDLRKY

By IC50 is commonly meant the concentration that gives 50% inhibition. Consider `CCCCCCCCCCCCCC1=CC(=O)OC1` [Compound 1, 4-tridecyl-2(5H)-furanone], for which the IC50 is 2.6 µM in assay [1], > 3.3 µM in assay [2], > 100 µM in assay [3] and 1.5 µM in assay [4]. In addition, the “Selectivity between calcium channel inhibition and phospholipase inhibition” value in assay [1] (conclusion from Table 1 (Ca2+ TRH/KCl vs PLA2, PLC)) was “selective calcium channel inhibitor”.
As for `CCCCCCCCCCCCCC1=CC(=O)OC1O` (stereo not drawn) [Compound 2, 4-tridecyl-5-hydroxy-2(5H)-furanone], the IC50 in assay [1] is 3 µM; in assay [2], 0.09 µM; in assay [3], > 100 µM; in assay [4] it was 3 µM.
Consider `CC1=C(CC/C(C)=C/CCC2=CCC(C3=CC(=O)OC3O)OC2O)C(C)(C)CCC1` (stereo not drawn) [manoalide, reference compound], for which the half-inhibitory concentration (IC50) in assay [1] came out at 0.6 µM; in assay [3], 3 µM; in assay [4], 0.8 µM.
